Among the data in patent US20070105837A1, “Novel derivatives of 4a,5,9,10,11,12-hexahydrobenzofuro[3a,3,2][2]-benzazepine, method for the production thereof and use thereof in the production of medicaments” (priority 2003, published 2007) are IC50 values, retold here.

SMILES strings stand for the structures. Counter-ions that a name gives are not always drawn. Like-named read-outs stand apart in the source and are kept apart here. Bounds are passed on as bounds.

This experiment deals with butyrylcholinesterase (Homo sapiens, UniProt P06276). As to the kind of experiment: biochemical.
Chain of butyrylcholinesterase (P06276 29-602): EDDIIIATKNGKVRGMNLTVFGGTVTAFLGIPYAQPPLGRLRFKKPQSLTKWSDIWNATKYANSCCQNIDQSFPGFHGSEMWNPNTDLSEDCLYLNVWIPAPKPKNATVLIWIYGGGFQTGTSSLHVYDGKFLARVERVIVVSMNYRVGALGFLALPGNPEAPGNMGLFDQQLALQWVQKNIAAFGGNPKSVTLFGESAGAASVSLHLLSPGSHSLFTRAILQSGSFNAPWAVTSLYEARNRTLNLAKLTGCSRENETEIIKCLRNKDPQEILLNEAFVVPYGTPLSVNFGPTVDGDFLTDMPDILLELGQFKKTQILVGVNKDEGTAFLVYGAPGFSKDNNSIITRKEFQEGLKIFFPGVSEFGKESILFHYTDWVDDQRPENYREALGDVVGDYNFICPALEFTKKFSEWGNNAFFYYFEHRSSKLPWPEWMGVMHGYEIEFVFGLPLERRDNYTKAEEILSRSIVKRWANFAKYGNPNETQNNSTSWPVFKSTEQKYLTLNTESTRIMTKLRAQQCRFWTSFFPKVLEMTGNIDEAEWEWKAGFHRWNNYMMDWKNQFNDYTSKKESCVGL
The mark [1] stands for this setting: read-out: Butyrylcholinesterase IC-50.

Turning to `COc1cc(Br)c2c3c1O[C@@H]1C[C@H](O)C=C[C@]31CCN(C(=O)CN1CCN(C)CC1)C2` [Example 7, 1-[(4aR,6S,8aR)-1-bromo-6-hydroxy-3-methoxy-5,6,9,10-tetrahydro-4aH-[1]benzofuro[3a,3,2-ef][2]benzazepine-11(12H)-yl]-2-(4-methylpiperazinyl)ethan-1-one], the IC50 under setting [1] is above 100 µM.

As for `C=CCNC(=S)N1CC[C@@]23C=C[C@@H](O)C[C@@H]2Oc2c(OC)cc(Br)c(c23)C1` [Example 12, (4aS,6R,8aS)-1-bromo-6-hydroxy-3-methoxy-4a,5,9,10-tetrahydro-6H-[1]benzofuro[3a,3,2-ef][2]benzazepine-11(12H)-thiocarbonic acid allylamide], the IC50 under setting [1] amounted to 11 µM. For the compound `COc1ccc2c3c1O[C@H]1C[C@H](O)C=C[C@@]31CCN(CCN1CCOCC1)C2` [Example 15, (4aS,6S,8aS)-4a,5,9,10,11,12-hexahydro-11-(2-(morpholin-4-yl)-ethyl)-3-methoxy-6H-[1]benzofuro[3a,3,2-ef][2]benzazepin-6-ol], the IC50 under setting [1] is above 100 µM. `C=C(C)CN1CC[C@@]23C=C[C@@H](O)C[C@@H]2Oc2c(OC)ccc(c23)C1` [Example 17, (4aS,6S,SaS)-4a,5,9,10,11,12-hexahydro-3-methoxy-11-(2-methyl-prop-2-enyl)-6H-[1]benzofuro[3a,3,2-ef][2]benzazepin-6-ol] gave an IC50 above 100 µM. Take `COc1ccc2c3c1O[C@H]1C[C@H](O)C=C[C@@]31CCN(C(=O)c1ccccc1)C2` [Example 19, (4aS,6S,8aS)-4a,5,9,10,11,12-hexahydro-3-methoxy-11-benzoyl-6H-[1]benzafuro[3a,3,2-ef][2]benzazepin-6-ol]: the IC50 under setting [1] was above 100 µM. `COc1ccc2c3c1O[C@H]1C[C@H](O)C=C[C@@]31CCN(CC=C(C)C)C2` [Example 22, (4aS,6S,8aS)-4a,5,9,10,11,12-hexahydro-3-methoxy-11-(3-Methylbut-2-en-1-yl)-6H-[1]benzofuro[3a,3,2-ef][2]benzazepin-6-ol]: the IC50 under setting [1] was 20 µM. Compound `COc1ccc2c3c1O[C@H]1C[C@@H](O)C=C[C@@]31CCN(CC(C)c1cccc(Oc3ccccc3)c1)C2` (stereo partly drawn) [Example 32, 2-((4aS,6R,8aS)-6-hydroxy-3-methoxy-5,6,9,10-tetrahydro-4aH-[1]benzofuro[3a,3,2-ef][2]benzazepine-11(12H)-yl)-1-methyl-1-(3-phenoxyphenyl)ethane hydrochloride] returned an IC50 of 0.36 µM. For the compound `COc1ccc2c3c1O[C@H]1C[C@@H](O)C=C[C@@]31CCN(C(=O)c1ccccc1)C2` [Example 33, (4aS,6R,8aS)-4a,5,9,10,11,12-hexahydro-3-methoxy-11-benzoyl-6H-[1]benzofuro[3a,3,2-ef][2]benzazepin-6-ol], the IC50 under setting [1] was above 100 µM. With `COc1ccc2c3c1O[C@H]1C[C@@H](O)C=C[C@@]31CCN(CC(C)C(=O)c1ccc(C)cc1)C2` (stereo partly drawn) [Example 35, 3-[(4aS,6R,8aS)-6-hydroxy-3-methoxy-5,6,9,10-tetrahydro-4aH-[1]benzofuro[3a,3,2-ef][2]benzazepine-11(12H)-yl]-2-methyl-1(- 4-methylphenyl)propan-1-one, hydrochloride], the IC50 under setting [1] amounted to 0.4 µM. Consider `COc1ccc2c3c1O[C@H]1C[C@@H](O)C=C[C@@]31CCN(C(=O)CN1CCCCC1)C2` [Example 36, 1-[(4aS,6R,8aS)-6-hydroxy-3-methoxy-5,6,9,10-tetrahydro-4aH-[1]benzofuro[3a,3,2-ef][2]benzazepine-11(12H)-yl]-2-(1-piperidyl)ethan-1-one], for which the IC50 under setting [1] is above 100 µM.

Consider `COc1ccc2c3c1O[C@H]1C[C@@H](O)C=C[C@@]31CCN(C(=O)CCN1CCCC1)C2` [Example 38, 1-[(4aS,6R,8aS)-6-hydroxy-3-methoxy-5,6,9,10-tetrahydro-4aH-[1]benzofuro[3a,3,2-ef][2]benzazepine-11(12H)-yl]-3-(1-pyrrolidyl) propan-1-one], for which, under setting [1], the IC50 amounted to 2.4 µM.
